Laboratory results reported in PMC8119466, “A screen of FDA-approved drugs identifies inhibitors of protein tyrosine phosphatase 4A3 (PTP4A3 or PRL-3)” (Scientific Reports, 2021).
Structures can show the parent of a compound that is named as a salt. Where two headings read alike, the source gives them in different places.

What was measured:
Type in all cases: biochemical
[1] = biological target: T1, recombinant PRL-1 (Homo sapiens, UniProt Q93096); test: In vitro phosphatase assay (DiFMUP hydrolysis), PRL-1; also: test concentration or dose not given here
T1 construct: 6xHis (N, cleaved yes); made in house; host or cells: E. coli One Shot BL21 Star
T1 sequence (Q93096 1-173): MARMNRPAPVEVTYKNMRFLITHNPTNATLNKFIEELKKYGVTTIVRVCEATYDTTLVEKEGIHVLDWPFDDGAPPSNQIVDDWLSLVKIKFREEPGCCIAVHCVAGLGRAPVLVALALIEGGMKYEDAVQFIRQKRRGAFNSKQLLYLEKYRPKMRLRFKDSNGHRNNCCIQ

[2] = biological target: T2, recombinant PRL-2 (Homo sapiens, UniProt Q12974); test: In vitro phosphatase assay (DiFMUP hydrolysis), PRL-2;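 also: PRL-2 activity read as DiFMUP hydrolysis after 20 min at room temperature with drug, enzyme first pre-reduced at 4 °C for 20 min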
T2 construct: 6xHis (N, cleaved yes); made in house; host or cells: E. coli One Shot BL21 Star
T2 sequence (Q12974 1-167): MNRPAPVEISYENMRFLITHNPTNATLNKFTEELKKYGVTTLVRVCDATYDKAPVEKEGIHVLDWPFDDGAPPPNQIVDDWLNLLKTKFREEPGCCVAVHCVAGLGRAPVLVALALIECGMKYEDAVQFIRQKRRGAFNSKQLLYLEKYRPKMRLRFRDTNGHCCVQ

[3] = biological target: T3, recombinant PRL-3 (Homo sapiens, UniProt O75365); test: In vitro phosphatase assay (DiFMUP hydrolysis), PRL-3; also: test concentration or dose not given here
T3 construct: 6xHis (N, cleaved yes); made in house; host or cells: E. coli One Shot BL21 Star

[4] = FDA-approved drug screen, compared to DMSO

T3 sequence (O75365 whole entry): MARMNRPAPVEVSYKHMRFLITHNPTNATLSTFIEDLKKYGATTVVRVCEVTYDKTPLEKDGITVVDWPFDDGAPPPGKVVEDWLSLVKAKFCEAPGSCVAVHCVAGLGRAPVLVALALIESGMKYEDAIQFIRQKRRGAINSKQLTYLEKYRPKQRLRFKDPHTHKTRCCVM

Structure (SMILES)	% Phosphatase Activity (compared to DMSO) PRL-1 [1, 4]	% Phosphatase Activity (compared to DMSO) PRL-2 [2, 4]	% Phosphatase Activity (compared to DMSO) PRL-3 [3, 4]	% Phosphatase Activity (compared to DMSO) PRL-1 [1]	% Phosphatase Activity (compared to DMSO) PRL-2 [2]	% Phosphatase Activity (compared to DMSO) PRL-3 [3]
Nc1nc2c(ncn2COCCO)c(=O)[nH]1 [Aciclovir]	85%	99%	89%	–	–	–
Cc1cnc(C(=O)O)c[n+]1[O-] [Acipimox]	97%	102%	95%	–	–	–
COc1cc(C)c(/C=C/C(C)=C/C=C/C(C)=C/C(=O)O)c(C)c1C [Acitretin]	83%	87%	62%	–	–	–
O=C(O[C@H]1C[N+]2(CCCOc3ccccc3)CCC1CC2)C(O)(c1cccs1)c1cccs1 [Aclidinium Bromide]	–	–	–	106%	117%	90%
COc1ccc(-c2ccc3cc(C(=O)O)ccc3c2)cc1C12CC3CC(CC(C3)C1)C2 [Adapalene]	183%	141%	68%	–	–	–
CC(C)(C)C(=O)OCOP(=O)(COCCn1cnc2c(N)ncnc21)OCOC(=O)C(C)(C)C [Adefovir Dipivoxil]	92%	88%	74%	–	–	–
Nc1ncnc2c1ncn2[C@@H]1O[C@H](CO)[C@@H](O)[C@H]1O [Adenosine]	100%	93%	87%	–	–	–
CNCC(=O)c1ccc(O)c(O)c1.Cl [Adrenalone HCl]	91%	91%	72%	–	–	–
CN(C)C/C=C/C(=O)Nc1cc2c(Nc3ccc(F)c(Cl)c3)ncnc2cc1O[C@H]1CCOC1.O=C(O)/C=C\C(=O)O.O=C(O)/C=C\C(=O)O [Afatinib (BIBW2992) Dimaleate]	97%	94%	101%	–	–	–
COc1ccc2cccc(CCNC(C)=O)c2c1 [Agomelatine]	92%	98%	76%	–	–	–
CCC[S+]([O-])c1ccc2[nH]c(NC(=O)OC)nc2c1 (stereo not drawn) [Albendazole Oxide]	93%	100%	95%	–	–	–
CCCSc1ccc2nc(NC(=O)OC)[nH]c2c1 [Albendazole]	–	–	–	102%	88%	78%
CN1CCC(=C2c3ccccc3CCn3c(C=O)cnc32)CC1 [Alcaftadine]	98%	89%	85%	–	–	–
NCCCC(O)(P(=O)(O)O)P(=O)(O)O [Alendronate]	–	–	–	110%	93%	79%
C=C1/C(=C\C=C2/CCC[C@]3(C)[C@@H]([C@H](C)CCCC(C)C)CC[C@@H]23)C[C@@H](O)C[C@@H]1O [Alfacalcidol]	99%	82%	75%	–	–	–
COc1cc2nc(N(C)CCCNC(=O)C3CCCO3)nc(N)c2cc1OC (stereo not drawn) [Alfuzosin HCl]	590%	536%	290%	–	–	–
C=CCc1cc(OC)c(O)c(C(=O)NCCO)c1 [Alibendol]	90%	109%	81%	–	–	–
COc1cc(Nc2ncc3c(n2)-c2ccc(Cl)cc2C(c2c(F)cccc2OC)=NC3)ccc1C(=O)O [Alisertib (MLN8237)]	85%	96%	81%	–	–	–
